Measured values published in US20210238139A1, “MODULATORS OF TRYPTOPHAN CATABOLISM” (E-Therapeutics PLC, priority 2018, published 2021).
Read-outs that look alike come from different tables or passages of the source.

System: SK-OV-3 cells
Test: Effect of compounds on tryptophan catabolism in SK-OV-3 cell line (inhibition of kynurenine production, LC-MS/MS)
Assay type: cell-based
Conditions: read-out: IC50 Ranges (ic50 values for inhibition of Kynurenine production)
In short: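 Kynurenine in supernatants quantified by LC-MS/MS after 24 h compound exposure (37 °C; top 30 μM, eight 3-fold steps, duplicate) in DMEM F-12 containing 6 mg/mL L-tryptophan. Cells pre-plated overnight in McCoy's 5A with 10% FBS. Viability checked in parallel by ATP luminescence.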

[1] = Homo sapiens, SK-OV-3, 24 h, SK-OV-3 cell line, 24 h incubation, kynurenine in supernatant by LC-MS/MS
[2] = SK-OV-3 cell line, 24 h incubation, kynurenine in supernatant by LC-MS/MS

Row | SMILES | IC50 [1] [nM] | also measured
1 | C#Cc1ccc(NC(=O)N(Cc2ccnc(C(F)(F)F)c2)C2CCC2)cc1 [Compound 153, 1-cyclobutyl-3-(4-ethynylphenyl)-1-[[2-(trifluoromethyl)-4-pyridyl]methyl]urea] | < 100 | 
2 | N#Cc1cccc(CN(C(=O)Nc2ccc(Cl)cc2)C2CCCC2)n1 [Compound 157, 3-(4-chlorophenyl)-1-[(6-cyano-2-pyridyl)methyl]-1-cyclopentyl-urea] | 100 to 500 | 
3 | Cc1ccc(CN(C(=O)Nc2ccc(C3CN(C(=O)OC(C)(C)C)C3)cc2)C2CCCC2)o1 [Compound 159, tert-butyl 3-[4-[[cyclopentyl-[(5-methyl-2-furyl)methyl]-carbamoyl]amino]phenyl]azetidine-1-carboxylate] |  | IC50 (Homo sapiens, SK-OV-3, 24 h): 1000 to 5000 nM
4 | Cc1ccc(CN(C(=O)Nc2ccc(-c3cnn(C)c3)nc2)C2CCCC2)o1 [Compound 160, 1-cyclopentyl-1-[(5-methyl-2-furyl)methyl]-3-[6-(1-methylpyrazol-4-yl)-3-pyridyl]urea] | 1000 to 5000 | 
5 | Cc1ccc(CN(C(=O)Nc2ncc(Br)s2)C2CCCC2)o1 [Compound 161, 3-(5-bromothiazol-2-yl)-1-cyclopentyl-1-[(5-methyl-2-furyl)methyl]urea] | < 100 | 
6 | C#Cc1ccc(NC(=O)N(Cc2ccno2)C2CCCC2)cc1 [Compound 163, 1-cyclopentyl-3-(4-ethynylphenyl)-1-(isoxazol-5-ylmethyl)urea] | < 100 | 
7 | Cc1ccc(CN(C(=O)Nc2nnc(-c3cccs3)o2)C2CCCC2)o1 [Compound 168, 1-cyclopentyl-1-[(5-methyl-2-furyl)methyl]-3-[5-(2-thienyl)-1,3,4-oxadiazol-2-yl]urea] | 500 to 1000 | 
8 | Cc1ccc(CN(C(=O)Nc2nnc(C3CCCCC3)o2)C2CCCC2)o1 [Compound 169, 3-(5-cyclohexyl-1,3,4-oxadiazol-2-yl)-1-cyclopentyl-1-[(5-methyl-2-furyl)methyl]urea] | 1000 to 5000 | 
9 | Cc1nc(C)c(CN(C(=O)Nc2ccccc2)C2CCCC2)s1 [Compound 170, 1-cyclopentyl-1-[(2,4-dimethylthiazol-5-yl)methyl]-3-phenyl-urea] | 1000 to 5000 | 
10 | Cc1nc(C)c(CN(C(=O)Nc2ccc(F)c(F)c2)C2CCCC2)s1 [Compound 171, 1-cyclopentyl-1-[(2,4-dimethylthiazol-5-yl)methyl]-3-(3,4-difluorophenyl)-urea] | 1000 to 5000 | 
11 | Cc1ccc(CN(C(=O)Nc2ccc(Cl)cc2F)C2CCCC2)o1 [Compound 172, 3-(4-chloro-2-fluoro-phenyl)-1-cyclopentyl-1-[(5-methyl-2-furyl)methyl]urea] | 100 to 500 | 
12 | Cc1ccc(CN(C(=O)Nc2ccc(Cl)cc2)c2cncn2C)o1 [Compound 193, 3-(4-chlorophenyl)-1-[(5-methyl-2-furyl)methyl]-1-(3-methylimidazol-4-yl)urea] |  | IC50 [2]: 500 to 1000 nM
13 | O=C(Nc1ccccc1)N(Cc1cccs1)C1CCCC1 [Compound 195, 1-cyclopentyl-3-phenyl-1-(2-thienylmethyl)urea] |  | IC50 [2]: 100 to 500 nM
14 | CN(Cc1cccs1)C(=O)Nc1ccc(Cl)c(Cl)c1 [Compound 200, 3-(3,4-dichlorophenyl)-1-methyl-1-(2-thienylmethyl)urea] | 1000 to 5000 | 
15 | Cc1ccc(N(Cc2cccs2)C(=O)NC2CCCCC2)cc1 [Compound 201, 3-cyclohexyl-1-(p-tolyl)-1-(2-thienylmethyl) urea] | 1000 to 5000 | 
16 | COc1ccc(N(Cc2cccs2)C(=O)NC2CCCCC2)cc1 [Compound 202, 3-cyclohexyl-(4-methoxyphenyl)-1-(2-thienylmethyl) urea] | 1000 to 5000 | 
17 | Cc1oc(-c2ccccc2)nc1CNC(=O)Nc1ccccc1 [Compound 203, 1-[(5-methyl-2-phenyl-oxazol-4-yl)methyl]-3-phenyl-urea] | 1000 to 5000 | 
18 | O=C(NCc1sccc1Cl)Nc1cccc(Cl)c1 [Compound 204, 1-(3-chlorophenyl)-3-[(3-chloro-2-thienyl)methyl]urea] | > 5000 | 
19 | COc1cc(NC(=O)N(Cc2ccc(C)o2)C2CCCC2)ccc1C#N [Compound 205] | 100 to 500 | 
20 | N#Cc1ccc(NC(=O)N(Cc2cc3ccccn3n2)C2CCC2)cc1 [Compound 207, 3-(4-cyanophenyl)-1-cyclobutyl-1-(pyrazolo[1,5-a]pyridin-2-ylmethyl)urea] | 100 to 500 | 
21 | N#Cc1ccc(NC(=O)N(Cc2ccc3ncoc3c2)C2CCC2)cc1 [Compound 209, 1-(1,3-benzoxazol-6-ylmethyl)-3-(4-cyanophenyl)-1-cyclobutyl-urea] | 500 to 1000 | 
22 | N#Cc1ccc(NC(=O)N(Cc2cn3ccccc3n2)C2CCC2)cc1 [Compound 210, 3-(4-cyanophenyl)-1-cyclobutyl-1-(imidazo[1,2-a]pyridin-2-ylmethyl)urea] | 1000 to 5000 | 
23 | N#Cc1ccc(NC(=O)N(Cc2cn3ccncc3n2)C2CCC2)cc1 [Compound 211, 3-(4-cyanophenyl)-1-cyclobutyl-1-(imidazo[1,2-a]pyrazin-2-ylmethyl)urea] | > 5000 | 
24 | O=C(Nc1ccc(Cl)cc1)N(Cc1cn2ccncc2n1)C1CCC1 [Compound 212, 3-(4-chlorophenyl)-1-cyclobutyl-1-(imidazo[1,2-a]pyrazin-2-ylmethyl)urea] | 1000 to 5000 | 
25 | Cn1ncc2ccc(CN(C(=O)Nc3ccc(C#N)cc3)C3CCC3)cc21 [Compound 217, 3-(4-cyanophenyl)-1-cyclobutyl-1-[(1-methylindazol-6-yl)methyl]urea] | 100 to 500 | 

Further lines, with some results ahead:

Row | IC50 [1] [nM] | SMILES | also measured
26 | 500 to 1000 | Cc1ccc(CN(C(=O)Nc2ccc(C#Cc3ccccc3)cc2)C2CCCC2)o1 [Compound 155, 1-cyclopentyl-1-[(5-methyl-2-furyl)methyl]-3-[4-(2-phenylethynyl)phenyl]urea] | 
27 | 500 to 1000 | Cc1ccc(CN(C(=O)Nc2ccc(C#CCc3ccccc3)cc2)C2CCCC2)o1 [Compound 156, 1-cyclopentyl-1-[(5-methyl-2-furyl)methyl]-3-[4-(3-phenylprop-1-ynyl)phenyl]urea] | 
28 | < 100 | Cc1ccc(CN(C(=O)Nc2ccc(-n3cc(CO)nn3)cc2)C2CCCC2)o1 [Compound 164, 1-cyclopentyl-3-[4-[4-(hydroxymethyl)triazol-1-yl]phenyl]-1-[(5-methyl-2-furyl)methyl]urea] | 
29 | 1000 to 5000 | CCN(Cc1ccc(C)o1)C(=O)Nc1ccccc1 [Compound 165, 1-ethyl-1-[(5-methyl-2-furyl)methyl]-3-phenyl-urea] | 
30 | 500 to 1000 | CCCN(Cc1ccc(C)o1)C(=O)Nc1ccccc1 [Compound 166, 1-[(5-methyl-2-furyl)methyl]-3-phenyl-1-propyl-urea] | 
31 | 1000 to 5000 | Cc1ccc(CN(C(=O)Nc2ccccc2)C2CC2)o1 [Compound 167, 1-cyclopropyl-1-[(5-methyl-2-furyl)methyl]-3-phenyl-urea] | 
32 | 500 to 1000 | Cc1ccc(CN(C(=O)Nc2nnc(-c3ccccc3)o2)C2CCCC2)o1 [Compound 175, 1-cyclopentyl-1-[(5-methyl-2-furyl)methyl]-3-(5-phenyl-1,3,4-oxadiazol-2-yl) urea] | 
33 | 100 to 500 | Cc1ccc(CN(C(=O)Nc2ccccc2)C2CCCC2)o1 [Compound 176, 1-cyclopentyl-1-[(5-methyl-2-furyl)methyl]-3-phenyl-urea] | 
34 | < 100 | CCc1ccc(NC(=O)N(Cc2ccc(C)o2)C2CCCC2)cc1 [Compound 177, 1-cyclopentyl-3-(4-ethylphenyl)-1-[(5-methyl-2-furyl)methyl]urea] | 
35 | 1000 to 5000 | Cc1ccc(CN(C(=O)Nc2ccccc2)C2CCC2)o1 [Compound 178, 1-cyclobutyl-1-[(5-methyl-2-furyl)methyl]-3-phenyl-urea] | 
36 | > 5000 | Cc1ccc(CN(C(=O)Nc2ccccc2)c2ncco2)o1 [Compound 179, 1-[(5-methyl-2-furyl)methyl]-1-oxazol-2-yl-3-phenyl-urea] | 
37 | > 5000 | Cc1ccc(CN(C(=O)Nc2ccc(F)cc2)c2ncco2)o1 [Compound 180, 3-(4-fluorophenyl)-1-[(5-methyl-2-furyl)methyl]-1-oxazol-2-yl-urea] | 
38 | 1000 to 5000 | Cc1ccc(CN(C(=O)NCCc2ccccc2)C2CCCC2)o1 [Compound 181, 1-cyclopentyl-1-[(5-methyl-2-furyl)methyl]-3-(2-phenylethyl)urea] | 
39 | 100 to 500 | Cc1ccc(CN(C(=O)Nc2ccc(Cl)cc2)c2nccn2C)o1 [Compound 182, 3-(4-chlorophenyl)-1-[(5-methyl-2-furyl)methyl]-1-(1-methylimidazol-2-yl) urea] | 
40 | 1000 to 5000 | Cc1ccc(CN(C(=O)Nc2ccc(Cl)cc2)c2cnc[nH]2)o1 [Compound 183, 3-(4-chlorophenyl)-1-(1H-imidazol-5-yl)-1-[(5-methyl-2-furyl)methyl]urea] | 
41 | 1000 to 5000 | O=C(Nc1ccccc1)N(Cc1cccs1)c1ccc(Cl)cc1 [Compound 196, 1-(4-chlorophenyl)-3-phenyl-1-(2-thienylmethyl)urea] | 
42 | < 100 | Cc1ccc(CN(C(=O)Nc2ccc(Cl)cc2)C2CCCC2(F)F)o1 (stereo not shown) [Compound 206, 3-(4-chlorophenyl)-1-(2,2-difluorocyclopentyl)-1-[(5-methyl-2-furyl)methyl]urea] | 
43 | 500 to 1000 | Cc1ccc(CN(C(=O)Nc2ccc(C#N)cc2)C2CC(F)C2)o1 (stereo not shown) [Compound 208, 3-(4-cyanophenyl)-1-(3-fluorocyclobutyl)-1-[(5-methyl-2-furyl)methyl]urea] | 
44 | < 100 | Cc1ccc(CN(C(=O)Nc2ccc(C#N)cc2)C2CCCC2(F)F)o1 (stereo not shown) [Compound 214, 3-(4-cyanophenyl)-1-(2,2-difluorocyclopentyl)-1-[(5-methyl-2-furyl)methyl]urea] | 
45 | < 100 | COC1CC(N(Cc2ccc(C)o2)C(=O)Nc2ccc(C#N)cc2)C1 (stereo not shown) [Compound 216, 3-(4-cyanophenyl)-1-(3-methoxycyclobutyl)-1-[(5-methyl-2-furyl)methyl]urea] | 
46 | 500 to 1000 | Cc1ccc(CN(C(=O)Nc2ccc(C#N)cc2)c2cnn(C)c2)o1 [Compound 218, 3-(4-cyanophenyl)-1-[(5-methyl-2-furyl)methyl]-1-(1-methylpyrazol-4-yl)urea] | 
